Assay results reported in the supplement of paper PMC10307832.

Compound: Cc1cc([C@@H](C)Nc2ccccc2C(=O)O)c2nc(N3CCOCC3)cc(=O)n2c1 [AZD6482] + N=C(N)NC(=N)NCCc1ccccc1 [Phenformin] (partner 250 µM)
Test: relative viability (nuclei count vs DMSO), 5 days (fraction); higher = more cells survive
Conditions: first compound 8 µM
Outline: (§1)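 Each reported value is a median over duplicate plates. It expresses relative viability: treated-well nuclei count divided by vehicle-well nuclei count. Lung cancer cell lines in 1536-well plates were dosed by pin tool a day after seeding, alone with one drug or with a fixed anchor-drug dose plus five library-drug doses (not always all listed) in √10 steps, and nuclei were counted after 5 days.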

**Q.** Which relative viability does the source give for PC-14 here?
**A.** The relative viability was 0.534.

**Q.** For EKVX, which relative viability is on record?
**A.** The relative viability was 0.208.

**Q.** For LC-2-ad, which relative viability is on record?
**A.** The relative viability was 0.471.

**Q.** With NCI-H1944 as the cell line, how does the relative viability read?
**A.** Its relative viability is 0.153.

**Q.** Which relative viability does the source give for NCI-H1975 here?
**A.** The relative viability was 0.232.

**Q.** RERF-LC-KJ was tested. Which relative viability did it give?
**A.** Its relative viability is 0.292.

**Q.** Which relative viability does the source give for ABC-1 here?
**A.** Its relative viability is 0.205.

**Q.** How did the relative viability turn out when NCI-H358 was run?
**A.** Its relative viability is 0.233.

**Q.** For NCI-H650, which relative viability is on record?
**A.** The relative viability was 0.31.

**Q.** Which relative viability does the source give for PC-3 [JPC-3] here?
**A.** Its relative viability is 0.391.

Compound: COc1cc2nc(N3CCCN(C)CC3)nc(NC3CCN(Cc4ccccc4)CC3)c2cc1OC + COc1cccc2cc(-c3nc([C@H]4CC[C@H](C(=O)O)CC4)n4ncnc(N)c34)[nH]c12 [OSI-027] (partner 0.5 µM)
Test: as above
Conditions: first compound 0.2 µM
Outline: as §1

**Q.** How did the relative viability turn out when LXF-289 was run?
**A.** Its relative viability is 0.696.

**Q.** Which relative viability does the source give for NCI-H23 here?
**A.** Its relative viability is 0.637.

**Q.** NCI-H647 was tested. Which relative viability did it give?
**A.** Its relative viability is 0.597.

**Q.** Which relative viability does the source give for CAL-12T here?
**A.** Its relative viability is 0.516.

**Q.** For NCI-H1651, which relative viability is on record?
**A.** The relative viability was 0.706.

**Q.** EPLC-272H was tested. Which relative viability did it give?
**A.** The relative viability was 0.358.

**Q.** For NCI-H2228, which relative viability is on record?
**A.** The relative viability was 0.539.

**Q.** How did the relative viability turn out when NCI-H1792 was run?
**A.** The relative viability was 0.836.

**Q.** For NCI-H1355, which relative viability is on record?
**A.** Its relative viability is 0.393.

**Q.** Which relative viability does the source give for NCI-H3122 here?
**A.** The relative viability was 0.935.

**Q.** NCI-H1437 was tested. Which relative viability did it give?
**A.** The relative viability was 0.901.

**Q.** Which relative viability does the source give for NCI-H1755 here?
**A.** The relative viability was 0.791.

**Q.** NCI-H2023 was tested. Which relative viability did it give?
**A.** Its relative viability is 0.363.

**Q.** With HCC-15 as the cell line, how does the relative viability read?
**A.** The relative viability was 0.696.

**Q.** Which relative viability does the source give for NCI-H1793 here?
**A.** Its relative viability is 0.241.

**Q.** How did the relative viability turn out when PC-14 was run?
**A.** The relative viability was 0.758.

**Q.** For EKVX, which relative viability is on record?
**A.** The relative viability was 0.755.

**Q.** LC-2-ad was tested. Which relative viability did it give?
**A.** The relative viability was 0.849.

**Q.** For NCI-H1944, which relative viability is on record?
**A.** Its relative viability is 0.428.

**Q.** NCI-H1975 was tested. Which relative viability did it give?
**A.** The relative viability was 0.785.

**Q.** For RERF-LC-KJ, which relative viability is on record?
**A.** The relative viability was 0.527.

**Q.** ABC-1 was tested. Which relative viability did it give?
**A.** The relative viability was 0.479.

**Q.** Which relative viability does the source give for NCI-H358 here?
**A.** The relative viability was 0.734.

**Q.** Which relative viability does the source give for NCI-H650 here?
**A.** The relative viability was 0.532.

**Q.** For PC-3 [JPC-3], which relative viability is on record?
**A.** The relative viability was 0.767.

Same assay, conditions: first compound 0.6325 µM

**Q.** For LXF-289, which relative viability is on record?
**A.** The relative viability was 0.761.

**Q.** For NCI-H23, which relative viability is on record?
**A.** The relative viability was 0.578.

**Q.** For NCI-H647, which relative viability is on record?
**A.** Its relative viability is 0.664.

**Q.** Which relative viability does the source give for CAL-12T here?
**A.** The relative viability was 0.718.

**Q.** With NCI-H1651 as the cell line, how does the relative viability read?
**A.** The relative viability was 0.686.

**Q.** EPLC-272H was tested. Which relative viability did it give?
**A.** The relative viability was 0.32.

**Q.** Which relative viability does the source give for NCI-H2228 here?
**A.** The relative viability was 0.451.

**Q.** Which relative viability does the source give for NCI-H1792 here?
**A.** The relative viability was 0.816.

**Q.** NCI-H1355 was tested. Which relative viability did it give?
**A.** Its relative viability is 0.456.

**Q.** How did the relative viability turn out when NCI-H3122 was run?
**A.** Its relative viability is 0.877.

**Q.** For NCI-H1437, which relative viability is on record?
**A.** Its relative viability is 0.876.

**Q.** Which relative viability does the source give for NCI-H1755 here?
**A.** The relative viability was 0.663.

**Q.** With NCI-H2023 as the cell line, how does the relative viability read?
**A.** Its relative viability is 0.508.

**Q.** HCC-15 was tested. Which relative viability did it give?
**A.** The relative viability was 0.712.

**Q.** Which relative viability does the source give for NCI-H1793 here?
**A.** Its relative viability is 0.365.

**Q.** PC-14 was tested. Which relative viability did it give?
**A.** Its relative viability is 0.734.

**Q.** For EKVX, which relative viability is on record?
**A.** The relative viability was 0.662.

**Q.** For LC-2-ad, which relative viability is on record?
**A.** The relative viability was 0.841.

**Q.** Which relative viability does the source give for NCI-H1944 here?
**A.** The relative viability was 0.465.

**Q.** How did the relative viability turn out when NCI-H1975 was run?
**A.** Its relative viability is 0.693.

**Q.** RERF-LC-KJ was tested. Which relative viability did it give?
**A.** Its relative viability is 0.586.

**Q.** ABC-1 was tested. Which relative viability did it give?
**A.** Its relative viability is 0.583.

**Q.** With NCI-H358 as the cell line, how does the relative viability read?
**A.** Its relative viability is 0.831.

**Q.** How did the relative viability turn out when NCI-H650 was run?
**A.** The relative viability was 0.483.

**Q.** With PC-3 [JPC-3] as the cell line, how does the relative viability read?
**A.** The relative viability was 0.746.

Same assay, conditions: first compound 2 µM

**Q.** How did the relative viability turn out when LXF-289 was run?
**A.** Its relative viability is 0.791.

**Q.** For NCI-H23, which relative viability is on record?
**A.** Its relative viability is 0.707.

**Q.** Which relative viability does the source give for NCI-H647 here?
**A.** Its relative viability is 0.62.

**Q.** How did the relative viability turn out when CAL-12T was run?
**A.** Its relative viability is 0.76.

**Q.** NCI-H1651 was tested. Which relative viability did it give?
**A.** The relative viability was 0.729.

**Q.** Which relative viability does the source give for EPLC-272H here?
**A.** The relative viability was 0.316.

**Q.** Which relative viability does the source give for NCI-H2228 here?
**A.** The relative viability was 0.499.

**Q.** How did the relative viability turn out when NCI-H1792 was run?
**A.** The relative viability was 0.682.

**Q.** For NCI-H1355, which relative viability is on record?
**A.** The relative viability was 0.467.

**Q.** With NCI-H3122 as the cell line, how does the relative viability read?
**A.** The relative viability was 0.992.

**Q.** Which relative viability does the source give for NCI-H1437 here?
**A.** Its relative viability is 0.85.

**Q.** Which relative viability does the source give for NCI-H1755 here?
**A.** The relative viability was 0.671.

**Q.** Which relative viability does the source give for NCI-H2023 here?
**A.** Its relative viability is 0.364.

**Q.** HCC-15 was tested. Which relative viability did it give?
**A.** Its relative viability is 0.619.

**Q.** For NCI-H1793, which relative viability is on record?
**A.** The relative viability was 0.225.

**Q.** How did the relative viability turn out when PC-14 was run?
**A.** Its relative viability is 0.733.

**Q.** How did the relative viability turn out when EKVX was run?
**A.** Its relative viability is 0.736.

**Q.** Which relative viability does the source give for LC-2-ad here?
**A.** The relative viability was 0.83.

**Q.** With NCI-H1944 as the cell line, how does the relative viability read?
**A.** The relative viability was 0.307.

**Q.** How did the relative viability turn out when NCI-H1975 was run?
**A.** Its relative viability is 0.744.

**Q.** RERF-LC-KJ was tested. Which relative viability did it give?
**A.** The relative viability was 0.573.

**Q.** Which relative viability does the source give for ABC-1 here?
**A.** Its relative viability is 0.444.

**Q.** For NCI-H358, which relative viability is on record?
**A.** The relative viability was 0.845.

**Q.** NCI-H650 was tested. Which relative viability did it give?
**A.** Its relative viability is 0.508.

**Q.** How did the relative viability turn out when PC-3 [JPC-3] was run?
**A.** The relative viability was 0.764.

Same assay, conditions: first compound 6.325 µM

**Q.** Which relative viability does the source give for LXF-289 here?
**A.** Its relative viability is 0.768.

**Q.** For NCI-H23, which relative viability is on record?
**A.** Its relative viability is 0.503.

**Q.** NCI-H647 was tested. Which relative viability did it give?
**A.** Its relative viability is 0.272.

**Q.** For CAL-12T, which relative viability is on record?
**A.** Its relative viability is 0.479.

**Q.** With NCI-H1651 as the cell line, how does the relative viability read?
**A.** The relative viability was 0.714.

**Q.** With EPLC-272H as the cell line, how does the relative viability read?
**A.** The relative viability was 0.205.

**Q.** Which relative viability does the source give for NCI-H2228 here?
**A.** Its relative viability is 0.256.

**Q.** NCI-H1792 was tested. Which relative viability did it give?
**A.** Its relative viability is 0.784.

**Q.** For NCI-H1355, which relative viability is on record?
**A.** The relative viability was 0.401.

**Q.** Which relative viability does the source give for NCI-H3122 here?
**A.** Its relative viability is 0.729.

**Q.** With NCI-H1437 as the cell line, how does the relative viability read?
**A.** Its relative viability is 0.918.

**Q.** With NCI-H1755 as the cell line, how does the relative viability read?
**A.** Its relative viability is 0.518.

**Q.** With NCI-H2023 as the cell line, how does the relative viability read?
**A.** Its relative viability is 0.126.

**Q.** HCC-15 was tested. Which relative viability did it give?
**A.** Its relative viability is 0.377.

**Q.** With NCI-H1793 as the cell line, how does the relative viability read?
**A.** The relative viability was 0.293.

**Q.** For PC-14, which relative viability is on record?
**A.** The relative viability was 0.0418.

**Q.** For EKVX, which relative viability is on record?
**A.** The relative viability was 0.666.

**Q.** LC-2-ad was tested. Which relative viability did it give?
**A.** Its relative viability is 0.761.

**Q.** Which relative viability does the source give for NCI-H1944 here?
**A.** The relative viability was 0.398.

**Q.** With NCI-H1975 as the cell line, how does the relative viability read?
**A.** The relative viability was 0.776.
